Experimental data: article PMC8457910 (Bioorganic Chemistry, 2021)
Where “and” joins values, the source holds several entries; their conditions need not be identical. Identical values can stand only once.

Biological target: NusA-5HB (Severe acute respiratory syndrome coronavirus 2, UniProt P0DTC2)
Assay: Competitive FP assays of small molecules
Assay type: binding, SARS-CoV-2
Details: IC50, 8 nM NusA-5HB, 5 nM HR2P-FL, 4% DMSO

## O=C(/C=C/c1ccc(O)c(O)c1/C=C/c1ccc(O)c(O)c1)O[C@H](Cc1ccc(O)c(O)c1)C(=O)O [Sal-A, Salvianolic acid A]
  IC50: 3.9 µM and ~3.9 µM

## O=C(O)/C=C/c1ccc(O)c(O)c1 [caffeic acid, Caffeic acid]
  IC50: 638 µM and ~638 µM
